Test results reported in patent US12410211B2, “V1A receptor partial agonist and method of use” (PharmaIN Corporation, priority 2020, dated 2025).
Where two headings read alike, the source gives them in different places. Marks after values point to notes of the source that are not given here.

How the values were obtained:
V1a receptor = target: T1, V1a receptor (Homo sapiens, UniProt P37288); assay: V1a Human Vasopressin GPCR Cell Based Agonist Calcium Flux Assay; details: for Emax: read-out: V1a Highest agonist effect (% of AVP)
T1 construct: host or cells: CHO cells
T1 sequence (P37288 whole entry): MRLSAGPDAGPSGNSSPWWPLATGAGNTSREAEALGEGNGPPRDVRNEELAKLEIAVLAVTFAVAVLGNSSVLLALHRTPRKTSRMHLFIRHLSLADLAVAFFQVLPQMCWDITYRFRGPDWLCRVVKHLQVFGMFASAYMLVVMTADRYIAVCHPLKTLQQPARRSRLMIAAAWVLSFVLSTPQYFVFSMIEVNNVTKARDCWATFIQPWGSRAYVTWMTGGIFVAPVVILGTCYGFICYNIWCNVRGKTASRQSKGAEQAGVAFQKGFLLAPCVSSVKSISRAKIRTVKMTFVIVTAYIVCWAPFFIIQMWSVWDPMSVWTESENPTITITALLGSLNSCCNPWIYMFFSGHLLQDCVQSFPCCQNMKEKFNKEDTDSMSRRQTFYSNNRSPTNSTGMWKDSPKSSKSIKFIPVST
Protocol: Peptides of Formula (I) include Mpa-Tyr-Phe-Hgn-Asn-Cys-Pro-Lys(X)a-Gly-NH2 [SEQ ID NO. 24]; where (X)a is a peptide with “a” residues and each residue X is independently selected from Gly, and a D- or L-amino acid version of Ala, Lys, Orn, Glu, and Asp, where “a” is 0-10. V1a Human Vasopressin GPCR Cell Based Agonist Calcium Flux Assay were conducted at Eurofins Cerep SA (France) on a fee for service basis. Human recombinant CHO cells expressing human V1 receptors were distributed in microplates. Intracellular calcium signal was detected by fluorimetry, and the signal was acquired before and after addition of a known agonist concentration. The following agonist concentrations were tested (nM); 0.0128, 0.064, 0.32, 1.6, 8, 40, 200, and 1,000. […] All assays were performed in duplicate. Changes in fluorescence intensity reflected changes in the concentration of free cytosolic calcium. […] The half-maximal effective concentration (EC50) was determined by a non-linear regression analysis of the concentration-response curves generated with mean replicate values using Hill equation curve fitting (Cerep, I'Evescault, France).
V1a Human Vasopressin GPCR Cell Based Agonist Calcium Flux Assay were conducted using human recombinant CHO cells expressing human V1 receptor. Briefly, human recombinant CHO cells expressing human V1 receptor were distributed in microplates at 4.5×10^4 cells/well. The fluorescent probe (Fluo4 Direct, Invitrogen) mixed with probenicid in HBSS buffer (Invitrogen) complemented with 20 mM HEPES (Invitrogen) (pH 7.4) is then added into each well and equilibrated with the cells for 60 min at 37° C. then 15 min at 22° C. Thereafter, the assay plates are positioned in a microplate reader (CellLux, PerkinElmer) which is used for the addition of the test compound, reference agonist or HBSS buffer (basal control), and the measurements of changes in fluorescence intensity which varies proportionally to the free cytosolic Ca^2+ ion concentration. The following agonist concentrations were tested (nM), 0.0128, 0.064, 0.32, 1.6, 8, 40, 200, and 1,000. […] All assays were performed in duplicate. Changes in fluorescence intensity reflected changes in the concentration of free cytosolic calcium. […] Referring to FIG. 3 and Table 4, the half-maximal effective concentration (EC50) was determined by non-linear regression analysis of the concentration-response curves generated with mean replicate values using Hill equation curve fitting (Cerep, I'Evescault, France).

[1] = Therapeutic index (NOAEL/NOEL): paleness, lethargy, ataxia observation in Sprague-Dawley rats (Example 7); format: in vivo; details: for NOAEL at 24 h: male, Sprague-Dawley
Description: As used herein, the term “therapeutic index” (TI; also referred to as therapeutic ratio) is a quantitative measure of the relative safety of a drug. […] For the purpose of the present application, lethargy is a lack of energy and/or sleepiness which is visually observed in rats as a lack of mobility, such as a lack of mobility even in the presence of human activity. For the purpose of present specification, peripheral vasoconstriction is visually observed by a paleness of the extremities (e.g., skin of hands, feet, ears, and lips). In rats, peripheral vasoconstriction is determined by a side-by-side comparison of ear paleness in treated subjects (e.g., Sprague Dawley rats, a white rat with easily visualizable changes in redness/paleness) vs. untreated control subjects. The V1a agonist (or partial agonist) with a high therapeutic index will have a better safety profile than that with a low therapeutic index by providing a wider margin of safety for dosing during the treatment of the disease. This NOAEL/NOEL ratio, being a quantitative measure of the relative safety, is a comparison of the amount of a therapeutic agent that causes the therapeutic effect (useful effect, vasoconstriction for the purpose of the present specification) to the amount that causes toxicity. A V1a agonist that causes severe vasoconstriction will affect not only the peripheral vessels, with several layer of smooth muscles, but also other vessels present in other organs (e.g., heart, lungs, kidney, brain) and this will result in observed lethargy and eventually ataxia. A partial agonist is less likely to reach such an extreme level of vasoconstriction and is believed to have a higher therapeutic index.
In this study, 8 to 10 weeks male Sprague-Dawley rats (Charles River; Wilmington, MA) under isoflurane anesthesia (n=3 or 6) were intravenously (IV) or subcutaneously (SC) injected or administered with various test articles. Prior to administration of test articles, the injection area was clipped free of fur, to allow for clear visualization of the dose site, and animal weight was measured and recorded. Animals were housed two per cage. […] Lethargy is when the animal eyes cannot fully open and is associated deep breathing and limited of movement even in the presence of human.

[2] = Table 3, CHO cells expressing human V1 receptor, read-out: Estimated V1a EC50 (nM), n = 2
[3] = S.C., at the Marked adverse effect dose
[4] = S.C., at the Mild adverse effect dose
[5] = in vivo, sc, S.C., rat, read-out: Highest dose with no-observed adverse effect level without lethargy (NOAEL)

NCC(=O)NCC(=O)NCC(=O)NCC(=O)NCC(=O)NCC(=O)NCC(=O)NCCCC[C@H](NC(=O)[C@@H]1CCCN1C(=O)[C@@H]1CSSCCC(=O)N[C@@H](Cc2ccc(O)cc2)C(=O)N[C@@H](Cc2ccccc2)C(=O)N[C@@H](CCCC(N)=O)C(=O)N[C@@H](CC(N)=O)C(=O)N1)C(=O)NCC(N)=O [SEQ ID NO. 14, Mpa-Tyr-Phe-Hgn-Asn-Cys-Pro-Lys(X)a-Gly-NH2; (X)a = (Gly)7]
EC50 (V1a receptor; [2]): 30.9 nM
Emax (V1a receptor; Table 3, n = 2): 26.1%
Paleness (Duration, hrs; SD) [1, 3]: (>6.44)* hrs
Paleness (Duration, hrs; SD) [1, 4]: (>6.39)* hrs
Paleness (Duration, hrs; SD) ([1]; S.C., at the NOAEL dose): (5.86 ± 0.13) hrs
Paleness (Duration, hrs; SD) ([1]; S.C., at the NOEL dose): None Observed
Highest dose with no-observed effect level or paleness (NOEL) ([1]; S.C., rat): 0.0015 mg/kg
NOAEL/NOEL (therapeutic index) ([1]; S.C., rat): 100
NOAEL at 24 h [1, 5]: 0.15 mg/kg
Marked adverse effect (Lowest dose first showed Ataxia) ([1]; rat, in vivo, sc): 1.5 mg/kg
Mild adverse effect (Lowest dose first showed Lethargy) ([1]; rat, in vivo, sc): 0.5 mg/kg

NCC(=O)NCC(=O)NCCCC[C@H](NC(=O)[C@@H]1CCCN1C(=O)[C@@H]1CSSCCC(=O)N[C@@H](Cc2ccc(O)cc2)C(=O)N[C@@H](Cc2ccccc2)C(=O)N[C@@H](CCCC(N)=O)C(=O)N[C@@H](CC(N)=O)C(=O)N1)C(=O)NCC(N)=O [SEQ ID NO. 9, Mpa-Tyr-Phe-Hgn-Asn-Cys-Pro-Lys(X)a-Gly-NH2; (X)a = (Gly)2]
EC50 (V1a receptor; [2]): 38.2 nM
Emax (V1a receptor; Table 3, n = 2): 37%
Paleness (Duration, hrs; SD) [1, 3]: (>5.99)* hrs
Paleness (Duration, hrs; SD) [1, 4]: (>6.04)* hrs
Paleness (Duration, hrs; SD) ([1]; S.C., at the NOAEL dose): (5.74 ± 0.45) hrs
Paleness (Duration, hrs; SD) ([1]; S.C., at the NOEL dose): None Observed
Highest dose with no-observed effect level or paleness (NOEL) ([1]; S.C., rat): 0.0015 mg/kg
NOAEL/NOEL (therapeutic index) ([1]; S.C., rat): 100
NOAEL at 24 h [1, 5]: 0.15 mg/kg
Marked adverse effect (Lowest dose first showed Ataxia) ([1]; rat, in vivo, sc): 1.5 mg/kg
Mild adverse effect (Lowest dose first showed Lethargy) ([1]; rat, in vivo, sc): 0.5 mg/kg

NCC(=O)NCC(=O)NCC(=O)NCC(=O)NCC(=O)NCC(=O)NCC(=O)NCC(=O)NCC(=O)NCCCC[C@H](NC(=O)[C@@H]1CCCN1C(=O)[C@@H]1CSSCCC(=O)N[C@@H](Cc2ccc(O)cc2)C(=O)N[C@@H](Cc2ccccc2)C(=O)N[C@@H](CCC(N)=O)C(=O)N[C@@H](CC(N)=O)C(=O)N1)C(=O)NCC(N)=O [SEQ ID NO. 23, Mpa-Tyr-Phe-Gln-Asn-Cys-Pro-Lys(X)a-Gly-NH2; (X)a = (Gly)9]
EC50 (V1a receptor; FIG. 2 / FIG. 3 legend, n=2, read-out: EC50 for V1a receptor): 12.6 nM
Emax (V1a receptor; Table 4, n = 2): 55.9%
Paleness (Duration, hrs; SD) [1, 3]: (>6.46)* hrs
Paleness (Duration, hrs; SD) [1, 4]: (6.23 ± 0.05) hrs
Paleness (Duration, hrs; SD) ([1]; S.C., at the NOAEL dose): (>5.09)* hrs
Paleness (Duration, hrs; SD) ([1]; S.C., at the NOEL dose): None observed
Highest dose with no-observed effect level or paleness (NOEL) ([1]; S.C., rat): 0.0015 mg/kg
NOAEL/NOEL (therapeutic index) ([1]; S.C., rat): 333
NOAEL at 24 h [1, 5]: 0.5 mg/kg
Marked adverse effect (Lowest dose first showed Ataxia) ([1]; rat, in vivo, sc): 5.0 mg/kg
Mild adverse effect (Lowest dose first showed Lethargy) ([1]; rat, in vivo, sc): 1.5 mg/kg

NCC(=O)NCCCC[C@H](NC(=O)[C@@H]1CCCN1C(=O)[C@@H]1CSSCCC(=O)N[C@@H](Cc2ccc(O)cc2)C(=O)N[C@@H](Cc2ccccc2)C(=O)N[C@@H](CCCC(N)=O)C(=O)N[C@@H](CC(N)=O)C(=O)N1)C(=O)NCC(N)=O [SEQ ID NO. 8, Mpa-Tyr-Phe-Hgn-Asn-Cys-Pro-Lys(X)-Gly-NH2; X = Gly]
EC50 (V1a receptor; [2]): 25.3 nM
Emax (V1a receptor; Table 3, n = 2): 40.3%
Paleness (Duration, hrs; SD) [1, 3]: (>6.12)* hrs
Paleness (Duration, hrs; SD) [1, 4]: (>6.12)* hrs
Paleness (Duration, hrs; SD) ([1]; S.C., at the NOAEL dose): (6.20 ± 0.28) hrs
Paleness (Duration, hrs; SD) ([1]; S.C., at the NOEL dose): None Observed
Highest dose with no-observed effect level or paleness (NOEL) ([1]; S.C., rat): 0.0015 mg/kg
NOAEL/NOEL (therapeutic index) ([1]; S.C., rat): 10
NOAEL at 24 h [1, 5]: 0.15 mg/kg
Marked adverse effect (Lowest dose first showed Ataxia) ([1]; rat, in vivo, sc): 1.5 mg/kg
Mild adverse effect (Lowest dose first showed Lethargy) ([1]; rat, in vivo, sc): 0.5 mg/kg

NCC(=O)NCC(=O)NCC(=O)NCC(=O)NCC(=O)NCC(=O)NCC(=O)NCC(=O)NCCCC[C@H](NC(=O)[C@@H]1CCCN1C(=O)[C@@H]1CSSCCC(=O)N[C@@H](Cc2ccc(O)cc2)C(=O)N[C@@H](Cc2ccccc2)C(=O)N[C@@H](CCCC(N)=O)C(=O)N[C@@H](CC(N)=O)C(=O)N1)C(=O)NCC(N)=O [SEQ ID NO. 15, Mpa-Tyr-Phe-Hgn-Asn-Cys-Pro-Lys(X)a-Gly-NH2; (X)a = (Gly)8]
EC50 (V1a receptor; [2]): 226 nM
Emax (V1a receptor; Table 3, n = 2): 24.8%
Paleness (Duration, hrs; SD) [1, 3]: (>6.19)* hrs
Paleness (Duration, hrs; SD) [1, 4]: (>6.17)* hrs
Paleness (Duration, hrs; SD) ([1]; S.C., at the NOAEL dose): (5.68 ± 0.06) hrs
Paleness (Duration, hrs; SD) ([1]; S.C., at the NOEL dose): None Observed
Highest dose with no-observed effect level or paleness (NOEL) ([1]; S.C., rat): 0.0015 mg/kg
NOAEL/NOEL (therapeutic index) ([1]; S.C., rat): 100
NOAEL at 24 h [1, 5]: 0.15 mg/kg
Marked adverse effect (Lowest dose first showed Ataxia) ([1]; rat, in vivo, sc): 1.5 mg/kg
Mild adverse effect (Lowest dose first showed Lethargy) ([1]; rat, in vivo, sc): 0.5 mg/kg

CC(=O)NCCCC[C@H](NC(=O)[C@@H]1CCCN1C(=O)[C@@H]1CSSCCC(=O)N[C@@H](Cc2ccc(O)cc2)C(=O)N[C@@H](Cc2ccccc2)C(=O)N[C@@H](CCCC(N)=O)C(=O)N[C@@H](CC(N)=O)C(=O)N1)C(=O)NCC(N)=O [SEQ ID NO. 28, Mpa-Tyr-Phe-Hgn-Asn-Cys-Pro-Lys(X)a-Gly-NH2; (X)a = Ac]
EC50 (V1a receptor; Table 3, cells printed in μM, read-out: Estimated V1a EC50, n = 2): > 10000 nM
Emax (V1a receptor; Table 3, n = 2): 30%
Highest dose with no-observed effect level or paleness (NOEL) ([1]; S.C., rat): 0.1 mg/kg
NOAEL/NOEL (therapeutic index) ([1]; S.C., rat): 3
NOAEL [1, 5]: 0.33 mg/kg
Marked adverse effect (Lowest dose first showed Ataxia) ([1]; rat, in vivo, sc): 3 mg/kg
Mild adverse effect (Lowest dose first showed Lethargy) ([1]; rat, in vivo, sc): 1 mg/kg
